Data as given in the supplement of paper PMC10307832.

Experiments:
Assay in all cases: relative viability (nuclei count vs DMSO), 5 days (fraction); higher = more cells survive
NCI-H1666 = system: NCI-H1666
How it was run: (§1)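 Medians of duplicate plates are given as relative viability. That measure is the nuclei count in treated wells divided by the count in vehicle wells. Counts were taken on 4× images of lung cancer cell lines in 1536-well plates, 5 days after pin-tool dosing the day after seeding with one drug alone or a fixed anchor-drug dose plus five library-drug doses (not always all listed) in √10 steps.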

EKVX = system: EKVX
How it was run: as §1

NCI-H322M = system: NCI-H322M
How it was run: as §1

LK-2 = system: LK-2
How it was run: as §1

NCI-H2342 = system: NCI-H2342
How it was run: as §1

NCI-H2405 = system: NCI-H2405
How it was run: as §1

SK-LU-1 = system: SK-LU-1
How it was run: as §1

NCI-H1975 = system: NCI-H1975
How it was run: as §1

PC-14 = system: PC-14
How it was run: as §1

NCI-H1563 = system: NCI-H1563
How it was run: as §1

HCC-78 = system: HCC-78
How it was run: as §1

EPLC-272H = system: EPLC-272H
How it was run: as §1

NCI-H23 = system: NCI-H23
How it was run: as §1

ChaGo-K-1 = system: ChaGo-K-1
How it was run: as §1

LU99A = system: LU99A
How it was run: as §1

HCC-827 = system: HCC-827
How it was run: as §1

LCLC-103H = system: LCLC-103H
How it was run: as §1

EMC-BAC-2 = system: EMC-BAC-2
How it was run: as §1

NCI-H2126 = system: NCI-H2126
How it was run: as §1

SW 900 = system: SW 900
How it was run: as §1

SW 1573 = system: SW 1573
How it was run: as §1

RERF-LC-KJ = system: RERF-LC-KJ
How it was run: as §1

## COc1cc2nccc(Oc3ccc(NC(=O)Nc4cc(C)on4)c(Cl)c3)c2cc1OC [Tivozanib] + Nc1nc2[nH]cc(CCc3ccc(C(=O)N[C@@H](CCC(=O)O)C(=O)O)cc3)c2c(=O)[nH]1 [Pemetrexed] (partner 0.2 µM)
NCI-H1666; first compound 0.005 µM
  relative viability: 0.829
NCI-H1666; first compound 0.01581 µM
  relative viability: 0.877
NCI-H1666; first compound 0.05 µM
  relative viability: 0.932
NCI-H1666; first compound 0.1581 µM
  relative viability: 0.797
NCI-H1666; first compound 0.5 µM
  relative viability: 0.75
EKVX; first compound 0.005 µM
  relative viability: 0.377
EKVX; first compound 0.01581 µM
  relative viability: 0.408
EKVX; first compound 0.05 µM
  relative viability: 0.394
EKVX; first compound 0.1581 µM
  relative viability: 0.432
EKVX; first compound 0.5 µM
  relative viability: 0.355
NCI-H322M; first compound 0.005 µM
  relative viability: 0.586
NCI-H322M; first compound 0.01581 µM
  relative viability: 0.621
NCI-H322M; first compound 0.05 µM
  relative viability: 0.588
NCI-H322M; first compound 0.1581 µM
  relative viability: 0.635
NCI-H322M; first compound 0.5 µM
  relative viability: 0.602
LK-2; first compound 0.005 µM
  relative viability: 0.254
LK-2; first compound 0.01581 µM
  relative viability: 0.258
LK-2; first compound 0.05 µM
  relative viability: 0.289
LK-2; first compound 0.1581 µM
  relative viability: 0.203
LK-2; first compound 0.5 µM
  relative viability: 0.197
NCI-H2342; first compound 0.005 µM
  relative viability: 0.753
NCI-H2342; first compound 0.01581 µM
  relative viability: 0.754
NCI-H2342; first compound 0.05 µM
  relative viability: 0.802
NCI-H2342; first compound 0.5 µM
  relative viability: 0.757
NCI-H2405; first compound 0.005 µM
  relative viability: 1.05
NCI-H2405; first compound 0.01581 µM
  relative viability: 1.13
NCI-H2405; first compound 0.05 µM
  relative viability: 1.09
NCI-H2405; first compound 0.1581 µM
  relative viability: 1.01
NCI-H2405; first compound 0.5 µM
  relative viability: 0.792
SK-LU-1; first compound 0.005 µM
  relative viability: 1
SK-LU-1; first compound 0.01581 µM
  relative viability: 0.928
SK-LU-1; first compound 0.05 µM
  relative viability: 0.997
SK-LU-1; first compound 0.1581 µM
  relative viability: 0.905
SK-LU-1; first compound 0.5 µM
  relative viability: 0.991
NCI-H1975; first compound 0.005 µM
  relative viability: 0.271
NCI-H1975; first compound 0.01581 µM
  relative viability: 0.285
NCI-H1975; first compound 0.05 µM
  relative viability: 0.283
NCI-H1975; first compound 0.1581 µM
  relative viability: 0.332
NCI-H1975; first compound 0.5 µM
  relative viability: 0.294
PC-14; first compound 0.005 µM
  relative viability: 0.124
PC-14; first compound 0.01581 µM
  relative viability: 0.138
PC-14; first compound 0.05 µM
  relative viability: 0.129
PC-14; first compound 0.1581 µM
  relative viability: 0.155
PC-14; first compound 0.5 µM
  relative viability: 0.115
NCI-H1563; first compound 0.005 µM
  relative viability: 0.657
NCI-H1563; first compound 0.01581 µM
  relative viability: 0.887
NCI-H1563; first compound 0.05 µM
  relative viability: 0.698
NCI-H1563; first compound 0.1581 µM
  relative viability: 0.594
NCI-H1563; first compound 0.5 µM
  relative viability: 0.728
HCC-78; first compound 0.005 µM
  relative viability: 0.925
HCC-78; first compound 0.01581 µM
  relative viability: 0.924
HCC-78; first compound 0.05 µM
  relative viability: 0.816
HCC-78; first compound 0.1581 µM
  relative viability: 0.885
HCC-78; first compound 0.5 µM
  relative viability: 0.913
EPLC-272H; first compound 0.005 µM
  relative viability: 0.337
EPLC-272H; first compound 0.01581 µM
  relative viability: 0.317
EPLC-272H; first compound 0.05 µM
  relative viability: 0.335
EPLC-272H; first compound 0.1581 µM
  relative viability: 0.284
EPLC-272H; first compound 0.5 µM
  relative viability: 0.288
NCI-H23; first compound 0.005 µM
  relative viability: 0.588
NCI-H23; first compound 0.01581 µM
  relative viability: 0.771
NCI-H23; first compound 0.05 µM
  relative viability: 0.787
NCI-H23; first compound 0.5 µM
  relative viability: 0.54
ChaGo-K-1; first compound 0.005 µM
  relative viability: 0.235
ChaGo-K-1; first compound 0.01581 µM
  relative viability: 0.271
ChaGo-K-1; first compound 0.05 µM
  relative viability: 0.253
ChaGo-K-1; first compound 0.1581 µM
  relative viability: 0.273
ChaGo-K-1; first compound 0.5 µM
  relative viability: 0.264
LU99A; first compound 0.005 µM
  relative viability: 0.161
LU99A; first compound 0.01581 µM
  relative viability: 0.176
LU99A; first compound 0.05 µM
  relative viability: 0.19
LU99A; first compound 0.1581 µM
  relative viability: 0.22
LU99A; first compound 0.5 µM
  relative viability: 0.193
HCC-827; first compound 0.005 µM
  relative viability: 0.266
HCC-827; first compound 0.01581 µM
  relative viability: 0.255
HCC-827; first compound 0.05 µM
  relative viability: 0.242
HCC-827; first compound 0.1581 µM
  relative viability: 0.259
HCC-827; first compound 0.5 µM
  relative viability: 0.253
LCLC-103H; first compound 0.005 µM
  relative viability: 0.453
LCLC-103H; first compound 0.01581 µM
  relative viability: 0.508
LCLC-103H; first compound 0.05 µM
  relative viability: 0.49
LCLC-103H; first compound 0.1581 µM
  relative viability: 0.459
LCLC-103H; first compound 0.5 µM
  relative viability: 0.46
EMC-BAC-2; first compound 0.005 µM
  relative viability: 0.463
EMC-BAC-2; first compound 0.01581 µM
  relative viability: 0.465
EMC-BAC-2; first compound 0.05 µM
  relative viability: 0.431
EMC-BAC-2; first compound 0.1581 µM
  relative viability: 0.507
EMC-BAC-2; first compound 0.5 µM
  relative viability: 0.398
NCI-H2126; first compound 0.005 µM
  relative viability: 0.692
NCI-H2126; first compound 0.01581 µM
  relative viability: 0.684
NCI-H2126; first compound 0.05 µM
  relative viability: 0.691
NCI-H2126; first compound 0.1581 µM
  relative viability: 0.582
NCI-H2126; first compound 0.5 µM
  relative viability: 0.589
SW 900; first compound 0.005 µM
  relative viability: 0.463
SW 900; first compound 0.01581 µM
  relative viability: 0.465
SW 900; first compound 0.05 µM
  relative viability: 0.507
SW 900; first compound 0.5 µM
  relative viability: 0.493
SW 1573; first compound 0.005 µM
  relative viability: 0.761
SW 1573; first compound 0.01581 µM
  relative viability: 0.766
SW 1573; first compound 0.05 µM
  relative viability: 0.805
SW 1573; first compound 0.1581 µM
  relative viability: 0.666
SW 1573; first compound 0.5 µM
  relative viability: 0.775
RERF-LC-KJ; first compound 0.005 µM
  relative viability: 0.465
RERF-LC-KJ; first compound 0.01581 µM
  relative viability: 0.441
RERF-LC-KJ; first compound 0.05 µM
  relative viability: 0.479
RERF-LC-KJ; first compound 0.1581 µM
  relative viability: 0.465
RERF-LC-KJ; first compound 0.5 µM
  relative viability: 0.439
